In the assay the test system is HCV 1b-377-neo replicon cells. Put plainly: HCV replicon assay, HCV 1b-377-neo replicon cells (1b FRET). Format: cell-based, Hepatitis C virus genotype 1b. To be noted: Hepatitis C virus, HCV 1b-377-neo replicon cells; HCV 1b genotype; read-out: EC50 range against HCV 1b (Table 2, Range). In outline: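 FRET-based replicon assay in HCV 1b-377-neo cells, including a comparison line carrying the NS5A Y2065H mutation that confers resistance to a reference compound.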
For the molecule `COC(=O)N[C@H](C(=O)N1CCC[C@H]1c1nc(-c2ccc(-c3ccc(-c4cnc([C@@H]5CCCN5C(=O)[C@H](NC(=O)OC)C5CCOCC5)[nH]4)cc3)cc2)c[nH]1)C(C)C` [Example F57, methyl ((1S)-1-(((2S)-2-(4-(4′-(2-((2S)-1-((2R)-2-((methoxycarbonyl)amino)-2-(tetrahydro-2H-pyran-4-yl)acetyl)-2-pyrrolidinyl)-1H-imidazol-5-yl)-4-biphenylyl)-1H-imidazol-2-yl)-1-pyrrolidinyl)carbonyl)-2-methylpropyl)carbamate], the EC50 lay within 0.001 to 0.999 nM.
As for `CC(C)[C@H](O)C(=O)N[C@@H](C)C(=O)N1CCC[C@H]1c1nc(-c2ccc(-c3ccc(-c4cnc([C@@H]5CCCN5C(=O)[C@H](C)NC(=O)[C@@H](O)C(C)C)[nH]4)cc3)cc2)c[nH]1` [Example F22, (2S)-2-hydroxy-N-((1S)-2-((2S)-2-(5-(4′-(2-((2S)-1-(N-((2S)-2-hydroxy-3-methylbutanoyl)-L-alanyl)-2-pyrrolidinyl)-1H-imidazol-4-yl)-4-biphenylyl)-1H-imidazol-2-yl)-1-pyrrolidinyl)-1-methyl-2-oxoethyl)-3-methylbutanamide], the figure is 100 to 999 nM.
In the case of `C[C@H](NC(=O)N(C)C)C(=O)N1CCC[C@H]1c1ncc(-c2ccc(-c3ccc(-c4cnc([C@@H]5CCCN5C(=O)[C@H](C)NC(=O)N(C)C)[nH]4)cc3)cc2)[nH]1` [OL-2, 3-((1S)-2-((2S)-2-(4-(4′-(2-((2S)-1-(N-(dimethylcarbamoyl)-L-alanyl)-2-pyrrolidinyl)-1H-imidazol-4-yl)-4-biphenylyl)-1H-imidazol-2-yl)-1-pyrrolidinyl)-1-methyl-2-oxoethyl)-1,1-dimethylurea] it was 0.001 to 0.999 nM; in that of `CN(C)[C@@H](C(=O)N1CCC[C@H]1c1ncc(-c2ccc(-c3ccc(-c4cnc([C@@H]5CCCN5C(=O)Cc5cccc(F)c5)[nH]4)cc3)cc2)[nH]1)c1ccccc1` [Example 94-52, (1R)-2-((2S)-2-(5-(4′-(2-((2S)-1-((3-fluorophenyl)acetyl)-2-pyrrolidinyl)-1H-imidazol-5-yl)-4-biphenylyl)-1H-imidazol-2-yl)-1-pyrrolidinyl)-N,N-dimethyl-2-oxo-1-phenylethanamine], 0.001 to 0.999 nM.
In the case of `C[C@@H](c1ncc(-c2ccc(-c3ccc(-c4cnc([C@H](C)N(C)C(=O)[C@@H](c5ccccc5)N(C)C)[nH]4)cc3)cc2)[nH]1)N(C)C(=O)[C@@H](c1ccccc1)N(C)C` [Example 24-18-2, (2R,2′R)-N,N′-(4,4′-biphenyldiylbis(1H-imidazole-5,2-diyl(1S)-1,1-ethanediyl))bis(2-(dimethylamino)N-methyl-2-phenylacetamide)] it was 0.001 to 0.999 nM; in that of `CN1CCC[C@H]1C(=O)N[C@@H](C(=O)N1CCC[C@H]1c1ncc(-c2ccc(-c3ccc(-c4cnc([C@@H]5CCCN5C(=O)[C@@H]5CCCO5)[nH]4)cc3)cc2)[nH]1)c1ccccc1` [Example 113, 1-methyl-N-((1R)-2-oxo-1-phenyl-2-((2S)-2-(5-(4′-(2-((2S)-1-((2S)-tetrahydro-2-furanylcarbonyl)-2-pyrrolidinyl)-1H-imidazol-5-yl)-4-biphenylyl)-1H-imidazol-2-yl)-1-pyrrolidinyl)ethyl)-L-prolinamide], 0.001 to 0.999 nM; in that of `C[C@@H](c1ncc(-c2ccc(-c3ccc(-c4cnc([C@H](C)N(C)C(=O)[C@@H](c5ccccc5)N5CCCCC5)[nH]4)cc3)cc2)[nH]1)N(C)C(=O)[C@@H](c1ccccc1)N1CCCCC1` [Example 24-18-3, (2R,2′R)-N,N′-(4,4′-biphenyldiylbis(1H-imidazole-5,2-diyl(1S)-1,1-ethanediyl))bis(N-methyl-2-phenyl-2-(1-piperidinyl)acetamide)], 0.001 to 0.999 nM.
As for `COC(=O)N[C@H](C(=O)N1CCC[C@H]1c1nc(-c2ccc(-c3ccc(-c4c[nH]c([C@@H]5CCCN5C(=O)[C@@H](NC(=O)O[C@@H]5CCOC5)C(C)C)n4)cc3)cc2)c[nH]1)C(C)C` [Example F56, (3R)-tetrahydro-3-furanyl ((1S)-1-(((2S)-2-(4-(4′-(2-((2S)-1-(N-(methoxycarbonyl)-L-valyl)-2-pyrrolidinyl)-1H-imidazol-4-yl)-4-biphenylyl)-1H-imidazol-2-yl)-1-pyrrolidinyl)carbonyl)-2-methylpropyl)carbamate], the half-maximal effective concentration (EC50) lay within 0.001 to 0.999 nM.
In the case of `COC(=O)N[C@@H]1CC[C@H](C(=O)N2CCC[C@H]2c2ncc(-c3ccc(-c4ccc(-c5cnc([C@@H]6CCCN6C(=O)[C@H]6CC[C@@H](NC(=O)OC)C6)[nH]5)cc4)cc3)[nH]2)C1` [cj-144, dimethyl (4,4′-biphenyldiylbis(1H-imidazole-5,2-diyl(2S)-2,1-pyrrolidinediylcarbonyl(1R,3S)-3,1-cyclopentanediyl))biscarbamate] it was 0.001 to 0.999 nM.
As for `C[C@H](NC(=O)[C@@H](c1ccccc1)N(C)C)c1ncc(-c2ccc(-c3ccc(-c4cnc([C@H](C)NC(=O)[C@@H](c5ccccc5)N(C)C)[nH]4)cn3)cc2)[nH]1` [Example 152j-24, (2R)-2-(dimethylamino)-N-((1S)-1-(5-(6-(4-(2-((1S)-1-(((2R)-2-(dimethylamino)-2-phenylacetyl)amino)ethyl)-1H-imidazol-5-yl)phenyl)-3-pyridinyl)-1H-imidazol-2-yl)ethyl)-2-phenylacetamide], the figure is 0.001 to 0.999 nM; as for `CN(C)[C@@H](C(=O)N1CCC[C@H]1c1ncc(-c2ccc(-c3ccc(-c4cnc([C@@H]5CCCN5C(=O)[C@H]5CCCO5)[nH]4)cc3)cc2)[nH]1)c1ccccc1Cl` [Example 107-38, (1R)-1-(2-chloro-phenyl)-N,N-dimethyl-2-oxo-2-((2S)-2-(5-(4′-(2-((2S)-1-((2R)-tetrahydro-2-furanylcarbonyl)-2-pyrrolidinyl)-1H-imidazol-5-yl)-4-biphenylyl)-1H-imidazol-2-yl)-1-pyrrolidinyl) ethanamine], 0.001 to 0.999 nM.
As for `CCN(CC)[C@@H](C(=O)N1CCC[C@H]1c1ncc(-c2ccc(-c3ccc(-c4cnc([C@@H]5CCCN5C(=O)C[C@H](Cc5ccccc5)NC(=O)OC)[nH]4)cc3)cc2)[nH]1)c1ccccc1` [cj-53, methyl ((1S)-1-benzyl-3-((2S)-2-(5-(4′-(2-((2S)-1-((2R)-2-(diethylamino)-2-phenylacetyl)-2-pyrrolidinyl)-1H-imidazol-5-yl)-4-biphenylyl)-1H-imidazol-2-yl)-1-pyrrolidinyl)-3-oxopropyl)carbamate], the figure is 0.001 to 0.999 nM.
With `COC(=O)N[C@@H](C(=O)N1CCC[C@H]1c1ncc(-c2ccc(-c3ccc(-c4cnc([C@@H]5CCCN5C(=O)[C@@H]5CCCO5)[nH]4)cc3)cc2)[nH]1)c1ccccc1` [Example 59, methyl ((1R)-2-oxo-1-phenyl-2-((2S)-2-(5-(4′-(2-((2S)-1-((2S)-tetrahydro-2-furanylcarbonyl)-2-pyrrolidinyl)-1H-imidazol-5-yl)-4-biphenylyl)-1H-imidazol-2-yl)-1-pyrrolidinyl)ethyl)carbamate], the concentration for a half-maximal effect (EC50) lay within 0.001 to 0.999 nM.
Take `C[C@H](NC(=O)[C@@H](c1ccccc1)N(C)C)c1ncc(-c2ccc(-c3ccc(-c4cnc([C@@H]5CCCN5C(=O)[C@@H](c5ccccc5)N(C)C)[nH]4)cn3)cc2)[nH]1` [Example 152j-11, (2R)-2-(dimethylamino)-N-((1S)-1-(5-(4-(5-(2-((2S)-1-((2R)-2-(dimethylamino)-2-phenylacetyl)-2-pyrrolidinyl)-1H-imidazol-5-yl)-2-pyridinyl)phenyl)-1H-imidazol-2-yl)ethyl)-2-phenylacetamide]: the EC50 fell in the range of 0.001 to 0.999 nM.

The values above are taken from US8574563B2 (Bristol-Myers Squibb Company, priority 2006, dated 2013).
